Assay results: patent US5710123A, “Peptide inhibitors of selectin binding” (Centocor, Inc., priority 1995, dated 1998)
Where a SMILES comes first, the peptide text is derived from it. Bridges are numbered along the chain shown (N, C = ends). Where no end group is shown, it is not given here.

Target: T1, P-selectin (Homo sapiens, UniProt P16109)
T1 construct: from tissue; host or cells: outdated human platelet packs from a blood bank
T1 sequence (P16109 42-830): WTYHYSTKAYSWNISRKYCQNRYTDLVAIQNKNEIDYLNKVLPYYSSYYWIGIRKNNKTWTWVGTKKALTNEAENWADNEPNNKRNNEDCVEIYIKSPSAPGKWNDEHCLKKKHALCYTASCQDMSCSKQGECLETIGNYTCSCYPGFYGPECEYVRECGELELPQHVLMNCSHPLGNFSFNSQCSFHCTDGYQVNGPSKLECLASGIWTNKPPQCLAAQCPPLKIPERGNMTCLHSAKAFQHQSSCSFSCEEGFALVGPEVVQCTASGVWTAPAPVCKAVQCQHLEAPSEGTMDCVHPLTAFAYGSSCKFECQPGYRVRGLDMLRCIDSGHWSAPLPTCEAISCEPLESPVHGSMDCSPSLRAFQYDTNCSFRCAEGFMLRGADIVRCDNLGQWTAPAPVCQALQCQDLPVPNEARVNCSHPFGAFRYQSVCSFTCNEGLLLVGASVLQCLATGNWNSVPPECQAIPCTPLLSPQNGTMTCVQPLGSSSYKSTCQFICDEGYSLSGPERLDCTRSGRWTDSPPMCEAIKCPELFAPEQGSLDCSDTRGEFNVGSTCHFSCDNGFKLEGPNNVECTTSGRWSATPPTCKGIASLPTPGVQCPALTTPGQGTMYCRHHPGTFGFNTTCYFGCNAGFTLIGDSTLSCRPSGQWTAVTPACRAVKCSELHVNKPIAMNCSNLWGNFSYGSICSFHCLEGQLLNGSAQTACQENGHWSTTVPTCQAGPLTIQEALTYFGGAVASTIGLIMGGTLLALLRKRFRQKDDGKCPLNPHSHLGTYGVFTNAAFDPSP
Test: Inhibition of binding of human neutrophils to P-selectin (neutrophil adhesion to purified immobilized P-selectin, myeloperoxidase readout)
Assay type: cell-based
Conditions: P-selectin purified from human platelets, plated at 5 micrograms/mL, peptides tested 1.0 mM to 0.001 mM
Source text: Peptides can be screened for their ability to inhibit adhesion to cells, for example, neutrophil adhesion to purified P-selectin immobilized on plastic wells, using the assay described by Geng, et al., Nature 343, 757-760 1990). Human neutrophils are isolated from heparinized […] blood by density gradient centrifugation on Mono-Poly resolving media, Flow Laboratories. Neutrophil suspensions are greater than 98% pure and greater than 95% viable by trypan blue exclusion. For adhesion assays, neutrophils are suspended at a concentration of 2×10^6 cells/mL in Hanks' balanced salt solution containing 1.26 mM Ca^2+ and 0.81 mM Mg^2+ (HBSS, Gibco) with […] human serum albumin (HBSS/HSA). Adhesion assays are conducted in triplicate in 96-well microtiter plates, Corning, incubated at 4° C. overnight with 50 microliters of various protein solutions. P-selectin is isolated from human platelet lysates by immunoaffinity chromatography on antibody S12-Sepharose™ and ion-exchange chromatography on a Mono-Q™ column (FLPC, Pharmacia Fine Chemicals), as follows. Outdated human platelet packs (100 units) obtained from a blood bank and stored at 4° C. are pooled, adjusted to 5 mM EDTA at pH 7.5, centrifuged at 4,000 rpm for 30 minutes in 1 liter bottles, then washed three times with 1 liter of 0.1M NaCl, 20 mM Tris pH 7.5 (TBS), 5 mM EDTA, 5 mM benzamidine. The pellets are then resuspended in a minimum amount of wash buffer and made 1 mM in DIFP, then frozen in 50 mL screwtop tubes at -80° C. The frozen platelets are thawed and resuspended in 50 mL TBS, 5 mM benzamidine, 5 mM EDTA pH 7.5, […]. The suspension is frozen and thawed two times in a dry ice-acetone bath using a 600 mL lyophilizing flask, then homogenized in a glass/teflon mortar and pestle and made 1 mM in DIFP. The NaCl concentration is adjusted to 0.5M with a stock solution of 4M NaCl. After stirring the suspension at 4° C., it is centrifuged in polycarbonate tubes at 33,000 rpm for 60 minutes at 4° C. The supernatant (0.5M NaCl wash) is removed and saved; this supernatant contains the soluble form of P-selectin. Care is taken not to remove the top part of the pellet with the supernatant. The pellets are then homogenized in extraction buffer (TBS, 5 mM benzamidine, 5 mM EDTA, pH 7.5, 100 μM leupeptin, 2% Triton X-100). After centrifugation at 19,500 rpm for 25 minutes at 4° C., the supernatant is removed. The extraction procedure is repeated with the pellet and the supernatant is combined with the first supernatant. The combined extracts, which contain the membrane form of P-selectin, are adjusted to 0.5M NaCl. The soluble fraction (0.5M NaCl wash) and the membrane extract (also adjusted to 0.5M NaCl) are absorbed with separate pools of the monoclonal antibody S12 (directed to P-selectin) previously coupled to Affigel (Biorad) at 5 mg/mL for 2 hours at 4° C. After letting the resins settle, the supernatants are removed. The S12 Affigel containing bound GMP-140 is then loaded into a column and washed overnight at 4° C. with 400 mL of 0.5M NaCl, 20 mM Tris pH 7.5, 0.01% Lubrol PX. Bound P-selectin is eluted from the S12 Affigel with 100 mL of 80% ethylene glycol, 1 mM MES pH 6.0, 0.01% Lubrol PX. Peak fractions with absorbance at 280 nm are pooled. Eluates are dialyzed against TBS with 0.05% Lubrol, then applied to a Mono Q column (FPLC from Pharmacia). The concentrated protein is step eluted with 2M NaCl, 20 mM Tris pH 7.5 (plus 0.05% Lubrol PX for the membrane fraction). Peak fractions are dialyzed into TBS pH 7.5 (plus 0.05% Lubrol PX for the membrane fraction). P-selectin is plated at 5 micrograms/mL and the control proteins: human serum albumin (Alb), platelet glycoprotein IIb/IIIa (IIb), von Willsbrand factor (vWF), fibrinogen (FIB), thrombomodulin (TM), gelatin (GEL) or human serum (HS), are added at 50 micrograms/mL. […]

Row | IC50 [µM] | Compound
1 | 48 | CC(C)C[C@H](NC(=O)[C@H](C)NC(=O)[C@H](CC(C)C)NC(=O)[C@H](CCCCN)NC(=O)[C@H](CCCCN)NC(=O)[C@H](CCCCN)NC(=O)[C@H](CO)NC(=O)[C@@H](N)CS)C(=O)N[C@@H](CS)C(=O)N[C@@H](Cc1ccc(O)cc1)C(N)=O [SEQ ID NO: 2, Cystinyl-serinyl-lysyl-lysyl-lysyl-leucyl-alanyl-leucyl-cystinyl-tyrosine-amide] (H-CSKKKLALCY-NH2)
2 | 19 | SKKKLALCY-NH2 [SEQ ID NO: 31, SKKKLALCY--NH2]
3 | 78 | CC(C)C[C@@H]1NC(=O)[C@H](C)NC(=O)[C@H](CC(C)C)NC(=O)[C@H](CCCCN)NC(=O)[C@H](CCCCN)NC(=O)[C@H](CCCCN)NC(=O)[C@H](CO)NC(=O)[C@@H](N)CSSC[C@@H](C(=O)N[C@@H](Cc2ccc(O)cc2)C(N)=O)NC1=O [SEQ ID NO: 5] (H-CSKKKLALCY-NH2; disulfide 1-9)
4 | 27 | Ac-SRRKLALCY-NH2 [SEQ ID NO: 68, Ac-SRRKLALCY--NH2]
5 | 2 | CC(C)C[C@@H]1NC(=O)[C@H](C)NC(=O)[C@H](C)NC(=O)[C@H](CCCCN)NC(=O)[C@H](CC(C)C)NC(=O)[C@H](CCCCN)NC(=O)[C@H](Cc2c[nH]cn2)NC(=O)[C@@H](N)CSSC[C@@H](C(=O)N[C@@H](Cc2ccc(O)cc2)C(N)=O)NC1=O [SEQ ID NO: 6, Cyclo-(cystinyl-histidyl-lysyl-leucyl-lysyl-alanyl-alanyl-leucyl-cystinyl)- tyrosine-amide] (H-CHKLKAALCY-NH2; disulfide 1-9)
6 | 656 | SKKKHALCY-NH2 [SEQ ID NO: 25, SKKKHALCY--NH2]
7 | 4 | SKKRLALCY-NH2 [SEQ ID NO: 50, SKKRLALCY--NH2]
8 | 26 | Ac-LKKKLALCY-NH2 [SEQ ID NO: 12, Ac-LKKKLALCY--NH2]
9 | 586 | SRKRLALSY-NH2 [SEQ ID NO: 67, SRKRLALSY--NH2]
10 | 103 | PKKKLALCY-NH2 [SEQ ID NO: 16, PKKKLALCY--NH2]
11 | 329 | SKKKLQACY-NH2 [SEQ ID NO: 46, SKKKLQACY--NH2]
12 | 164 | Ac-SKKKLALVY-NH2 [SEQ ID NO: 39, Ac-SKKKLALVY--NH2]
13 | 12 | Ac-SKLKLALCY-NH2 [SEQ ID NO: 51, Ac-SKLKLALCY--NH2]
14 | 195 | SKKQLALCY-NH2 [SEQ ID NO: 48, SKKQLALCY--NH2]
15 | 88 | Ac-SKKKLALLY-NH2 [SEQ ID NO: 37, Ac-SKKKLALLY--NH2]
16 | 14 | SRRKLALCY-NH2 [SEQ ID NO: 69, SRRKLALCY--NH2]
17 | 95 | SKKKLILCY-NH2 [SEQ ID NO: 45, SKKKLILCY--NH2]
18 | 362 | SHKKLALCY-NH2 [SEQ ID NO: 18, SHKKLALCY--NH2]
19 | 390 | SKKKLALIV-NH2 [SEQ ID NO: 33, SKKKLALIV--NH2]
